How the values were obtained:
[1] = Apparent clearance in BALB/c mouse at 50 mg/kg, ip administered as liposome encapsulated form and measured upto 24 hrs by LC-MS/MS analysis; format: ADME, organism-based; conditions: in vivo, read-out: CL(app) (converted)
U-87 MG [2] = experiment: Antitumor activity against human U87 cells xenografted in BALB/c nude mouse assessed as tumor growth inhibition at 12.5 mg/kg/day administered as liposome encapsulated form for 15 days and measured every 3 days by vernier caliper; format: functional, U-87MG ATCC; conditions: 360 h, time 15 day, read-out: TGI
[3] = AUC (0 to t) in BALB/c mouse at 12.5 mg/kg, ip administered as liposome encapsulated form and measured upto 24 hrs by LC-MS/MS analysis; format: ADME, organism-based; conditions: in vivo
[4] = Apparent clearance in BALB/c mouse at 12.5 mg/kg, ip administered as liposome encapsulated form and measured upto 24 hrs by LC-MS/MS analysis; format: ADME, organism-based; conditions: in vivo, read-out: CL(app) (converted)
[5] = Selectivity index, ratio of IC50 for human A549 cells to IC50 for human U87 cells; format: functional
[6] = biological target: T1, Short transient receptor potential channel 3 (Homo sapiens, UniProt Q13507); experiment: Antagonist activity at human TRPC3 stably expressed in HEK293 cells inhibition of calcium influx by calcium fluorescence assay; format: cell-based
T1 sequence (Q13507 whole entry): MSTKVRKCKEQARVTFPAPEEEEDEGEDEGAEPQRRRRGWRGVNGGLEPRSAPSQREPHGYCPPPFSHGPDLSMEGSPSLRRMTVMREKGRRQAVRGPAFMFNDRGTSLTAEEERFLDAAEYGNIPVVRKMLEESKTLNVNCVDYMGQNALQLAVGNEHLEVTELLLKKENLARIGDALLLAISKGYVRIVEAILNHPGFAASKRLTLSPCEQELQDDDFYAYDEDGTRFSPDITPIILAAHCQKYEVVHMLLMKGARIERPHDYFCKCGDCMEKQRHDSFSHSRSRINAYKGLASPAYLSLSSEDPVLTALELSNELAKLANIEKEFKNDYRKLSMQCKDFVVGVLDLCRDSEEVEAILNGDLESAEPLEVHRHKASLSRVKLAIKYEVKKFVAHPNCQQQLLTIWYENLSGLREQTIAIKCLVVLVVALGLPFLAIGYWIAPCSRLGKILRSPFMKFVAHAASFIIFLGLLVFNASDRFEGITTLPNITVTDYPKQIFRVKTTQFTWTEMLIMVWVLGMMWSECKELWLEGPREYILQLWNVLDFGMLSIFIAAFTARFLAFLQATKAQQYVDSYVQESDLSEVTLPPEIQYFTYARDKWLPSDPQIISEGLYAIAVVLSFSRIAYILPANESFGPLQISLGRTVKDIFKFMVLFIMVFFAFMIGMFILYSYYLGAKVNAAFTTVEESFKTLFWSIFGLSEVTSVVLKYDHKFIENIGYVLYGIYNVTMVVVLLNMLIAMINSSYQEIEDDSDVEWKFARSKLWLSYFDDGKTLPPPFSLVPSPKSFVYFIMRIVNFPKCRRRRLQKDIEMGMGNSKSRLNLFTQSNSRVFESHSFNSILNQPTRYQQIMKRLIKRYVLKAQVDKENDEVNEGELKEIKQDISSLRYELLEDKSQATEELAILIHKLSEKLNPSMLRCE

U-87 MG [7] = experiment: Antitumor activity against human U87 cells xenografted in BALB/c nude mouse assessed as tumor growth inhibition at 50 mg/kg/day administered as liposome encapsulated form for 15 days and measured every 3 days by vernier caliper; format: functional, U-87MG ATCC; conditions: 360 h, time 15 day, read-out: TGI
[8] = biological target: T2, Short transient receptor potential channel 6 (Mus musculus) (UniProt Q61143); experiment: Antagonist activity at mouse TRPC6 stably expressed in HEK293 cells assessed as inhibition of calcium influx at 10 uM by calcium fluorescence assay relative to control; format: cell-based; conditions: filed as antagonist
T2 sequence (whole entry): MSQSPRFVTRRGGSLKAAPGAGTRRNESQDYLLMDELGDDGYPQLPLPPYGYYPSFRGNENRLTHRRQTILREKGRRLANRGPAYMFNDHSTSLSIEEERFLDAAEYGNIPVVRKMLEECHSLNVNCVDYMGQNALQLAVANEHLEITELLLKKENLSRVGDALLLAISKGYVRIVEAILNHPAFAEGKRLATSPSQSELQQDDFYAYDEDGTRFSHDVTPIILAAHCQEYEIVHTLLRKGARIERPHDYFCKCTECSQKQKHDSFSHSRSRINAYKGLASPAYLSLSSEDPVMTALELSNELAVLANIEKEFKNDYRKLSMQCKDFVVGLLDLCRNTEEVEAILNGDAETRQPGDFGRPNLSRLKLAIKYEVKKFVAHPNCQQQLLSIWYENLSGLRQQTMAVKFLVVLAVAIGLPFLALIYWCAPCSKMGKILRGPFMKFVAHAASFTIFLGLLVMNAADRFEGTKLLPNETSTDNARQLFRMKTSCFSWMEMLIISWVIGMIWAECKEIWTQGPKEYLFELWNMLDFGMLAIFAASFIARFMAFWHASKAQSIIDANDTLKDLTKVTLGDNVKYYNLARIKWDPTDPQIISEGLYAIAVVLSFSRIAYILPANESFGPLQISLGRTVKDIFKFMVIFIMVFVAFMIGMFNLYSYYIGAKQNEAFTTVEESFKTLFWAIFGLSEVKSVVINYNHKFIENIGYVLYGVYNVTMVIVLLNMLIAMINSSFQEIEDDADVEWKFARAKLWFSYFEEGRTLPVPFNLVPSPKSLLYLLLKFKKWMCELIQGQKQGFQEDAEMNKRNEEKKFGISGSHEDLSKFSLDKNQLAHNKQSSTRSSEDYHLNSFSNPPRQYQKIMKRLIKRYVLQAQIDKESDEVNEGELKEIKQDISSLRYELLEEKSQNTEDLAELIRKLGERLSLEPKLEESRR

[9] = AUC (0 to infinity) in BALB/c mouse at 25 mg/kg, ip administered as liposome encapsulated form and measured upto 24 hrs by LC-MS/MS analysis; format: ADME, organism-based; conditions: in vivo
[10] = Toxicity against BALB/c nude mouse xenografted with human U87 cells assessed as change in body weight at 12.5 to 50 mg/kg/day administered as liposome encapsulated form for 15 days; format: organism-based, U-87MG ATCC; conditions: in vivo, 360 h, dose 12.5-50 mg/kg/day, time 15 day
U-87 MG [11] = experiment: Antitumor activity against human U87 cells xenografted in BALB/c nude mouse assessed as tumor growth inhibition at 25 mg/kg/day administered as liposome encapsulated form for 15 days and measured every 3 days by vernier caliper; format: functional, U-87MG ATCC; conditions: 360 h, time 15 day, read-out: TGI

Molecule `NCCN(Cc1ccc2ccccc2c1)c1nc(C(=O)Nc2ccc(O)cc2)cs1` has a CL/F [1] of 49.6 mL/min/kg, an inhibition in vivo at 12.5 mg/kg/day (U-87 MG [2]) of 36.3% and an AUC(0-t) at 24 h [3] of 2550 ng·h/mL. For the same molecule, the CL/F [4] was 74.6 mL/min/kg, the “Ratio IC50” value [5] was 2 and the IC50 [6] was 2400 nM. It also gave an inhibition in vivo at 50 mg/kg/day (U-87 MG [7]) of 49.4%, an inhibition [8] of 100% and an AUC(0-inf) [9] of 6920 ng·h/mL. For the same molecule, the Activity [10] was “Non-Toxic” and the inhibition in vivo at 25 mg/kg/day (U-87 MG [11]) was 45.8%.

From ChEMBL document CHEMBL5518193, “Discovery of N-alkyl-N-benzyl thiazoles as novel TRPC antagonists for the treatment of glioblastoma multiforme” (Eur J Med Chem, 2024)
